Test results published in patent publication US6521650B1, “Amines as pharmaceutical agents” (Pfizer, Inc., priority 1997, dated 2003).

Assays:
DBA2 = DBA2 % Protection; assay type: in vivo

| melting point [°C] | SMILES | DBA2 % Protection 1 Hr (DBA2) [%] | DBA2 % Protection 2 Hr (DBA2) [%] |
| --- | --- | --- | --- |
| 183 to 185 | CC(C)CC(CN)Cc1noc(=S)[nH]1.Cl (centres unmarked) | – | – |
| – | CC(C)CC(CN)Cc1noc(=S)[nH]1 (centres unmarked) | 0 | 0 |
| – | CC(C)CC(CN)CP(=O)(O)O (centres unmarked) [PO3H2, (2-Aminomethyl-4-methyl-pentyl)-phosphonic acid] | 0 | 0 |
